We go through 1 substance from patent US10807976B2, “Quinolinone five-membered heterocyclic compounds as mutant-isocitrate dehydrogenase inhibitors” (FORMA Therapeutics, Inc., priority 2015, dated 2020).

In this assay the target is IDH1-R132H recombinant protein (Homo sapiens, UniProt O75874, R132H). Description: IDH1-R132H enzymatic assay (diaphorase/resazurin, NADPH consumption). As to conditions: 30 nM IDH1-R132H, inhibition of NADPH consumption; read-out: Enzyme IDH1 R132H IC50. In kind it is biochemical. As for the experimental part:
Example 26—IDH1-R132H and IDH1-R132C Enzymatic Assay
Assays were performed in a 384-well black plate. An aliquot of 250 nL of compound was incubated with 10 μL of 30 nM IDH1-R132H or 10 nM IDH1-R132C recombinant protein in assay buffer (50 mM Tris pH=7.5, 150 mM NaCl, 5 mM MgCl2, 0.1% (w/v) Bovine Serum Albumin, and 0.01% Triton X-100) in each well at 25° C. for 15 minutes. After the plate was centrifuged briefly, an aliquot of 10 μL of 2 mM α-ketoglutarate and 20 μM NADPH solution prepared in assay buffer was then added to each well and the reaction was maintained at 25° C. for 45 minutes. An aliquot of 10 μL of diaphorase solution (0.15 U/mL diaphorase and 30 μM Resazurin in assay buffer) was added to each well. The plate was maintained at 25° C. for 15 minutes and then read on a plate reader with excitation and emission wavelengths at 535 nm and 590 nm, respectively. The IC50 of a given compound was calculated by fitting the dose response curve of inhibition of NADPH consumption at a given concentration with the four parameter logistic equation.
For orientation: The colour change of resazurin is a common sign of viable cells or microbes.

Sequence of IDH1-R132H recombinant protein (O75874 whole entry R132H): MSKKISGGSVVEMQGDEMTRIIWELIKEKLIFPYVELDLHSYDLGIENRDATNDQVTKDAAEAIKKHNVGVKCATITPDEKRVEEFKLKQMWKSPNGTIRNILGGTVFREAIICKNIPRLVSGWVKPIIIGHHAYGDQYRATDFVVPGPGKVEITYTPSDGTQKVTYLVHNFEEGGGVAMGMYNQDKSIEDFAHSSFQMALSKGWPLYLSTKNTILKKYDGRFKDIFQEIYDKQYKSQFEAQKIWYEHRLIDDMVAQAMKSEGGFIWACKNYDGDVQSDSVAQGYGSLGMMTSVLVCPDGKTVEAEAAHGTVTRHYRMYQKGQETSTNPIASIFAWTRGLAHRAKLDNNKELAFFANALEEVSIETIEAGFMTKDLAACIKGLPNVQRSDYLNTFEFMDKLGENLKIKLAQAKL

A word on the IC50: it is the concentration that inhibits the measured activity by half. Regarding “6-chloro-3-[(1S)-1-{[5-(2-oxo-1,3-oxazolidin-3-yl)-1,2,4-thiadiazol-3-yl]amino}ethyl]-1,2-dihydroquinolin-2-one [Compound I-12]”, the IC50 was greater than 10 µM.
